Measured values as given in BigSolDB 2.1.

Cc1c(Br)cccc1C(=O)O
solubility (mole fraction)
Details | in DMF | in THF | in acetonitrile | in cyclohexane | in ethanol | in ethyl acetate | in methanol
278.15 K | 0.104 | 0.169 | 0.00326 | – | 0.0358 | 0.027 | 0.0205
283.15 K | 0.126 | 0.183 | 0.00387 | 0.00076 | 0.0398 | 0.031 | 0.0261
288.15 K | 0.152 | 0.196 | 0.00473 | 0.00092 | 0.0449 | 0.0359 | 0.0301
293.15 K | 0.181 | 0.209 | 0.006 | 0.00113 | 0.0513 | 0.0413 | 0.0355
298.15 K | 0.216 | 0.222 | 0.00665 | 0.00135 | 0.0563 | 0.0464 | 0.041
303.15 K | 0.258 | 0.236 | 0.00779 | 0.00162 | 0.0631 | 0.0524 | 0.0479
308.15 K | 0.305 | 0.248 | 0.00955 | 0.00197 | 0.0703 | 0.0601 | 0.0559
313.15 K | 0.361 | 0.26 | 0.0113 | 0.00249 | 0.0831 | 0.0677 | 0.0641
318.15 K | 0.424 | 0.271 | 0.0138 | 0.00312 | 0.0936 | 0.0775 | 0.0724
323.15 K | 0.5 | 0.282 | 0.0164 | 0.00422 | 0.104 | 0.0879 | 0.0815
328.15 K | 0.584 | 0.293 | 0.0194 | 0.00529 | 0.121 | 0.101 | 0.0895
